Laboratory results taken from PubChem BioAssay AID330 (DTP/NCI, 2004).
Where “and” joins values, the source holds several entries; their conditions need not be identical. Equal values may be shown once. Inconclusive results and toxic doses are left out. Rule for the calls: active = survival T/C of 150% or more; inactive = T/C below 125% in these data. Peptide text beside a SMILES is read from it.

System: P388 leukemia ip, CD2F1 mice, survival T/C
Experiment: NCI In Vivo Anticancer Drug Screen. Data for tumor model P388 Leukemia (intraperitoneal) in CD2F1 (CDF1) mice
Details: endpoint: median survival time, higher = longer survival
Outline: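 Mice carrying the transplanted tumor received test compound or vehicle. Survival was recorded in each group, and the value is the treated-group measurement divided by that of the vehicle-treated control group.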

[1] = dose: 50.0 mg/kg/injection, schedule: Q01DX009 (ip), vehicle: saline with Tween-80
[2] = dose: 100.0 mg/kg/injection, schedule: Q01DX009 (ip), vehicle: saline with Tween-80
[3] = dose: 200.0 mg/kg/injection, schedule: Q01DX009 (ip), vehicle: saline with Tween-80
[4] = dose: 25.0 mg/kg/injection, schedule: Q01DX009 (ip), vehicle: Klucel (hydroxypropylcellulose) (HPC)
[5] = dose: 50.0 mg/kg/injection, schedule: Q01DX009 (ip), vehicle: Klucel (hydroxypropylcellulose) (HPC)
[6] = dose: 50.0 mg/kg/injection, schedule: Q01DX005 (ip), vehicle: saline with Tween-80
[7] = dose: 100.0 mg/kg/injection, schedule: Q01DX005 (ip), vehicle: saline with Tween-80
[8] = dose: 200.0 mg/kg/injection, schedule: Q01DX005 (ip), vehicle: saline with Tween-80
[9] = dose: 100.0 mg/kg/injection, schedule: Q04DX003 (ip), vehicle: saline
[10] = dose: 50.0 mg/kg/injection, schedule: Q01DX005 (ip), vehicle: Klucel (hydroxypropylcellulose) (HPC)
[11] = dose: 100.0 mg/kg/injection, schedule: Q01DX005 (ip), vehicle: Klucel (hydroxypropylcellulose) (HPC)
[12] = dose: 200.0 mg/kg/injection, schedule: Q01DX005 (ip), vehicle: Klucel (hydroxypropylcellulose) (HPC)
[13] = dose: 50.0 mg/kg/injection, schedule: Q01DX005 (ip), vehicle: saline
[14] = dose: 100.0 mg/kg/injection, schedule: Q01DX005 (ip), vehicle: saline
[15] = dose: 200.0 mg/kg/injection, schedule: Q01DX005 (ip), vehicle: saline

Measured: T/C

Cc1cc[c]([Sb]2([c]3ccc(C)cc3)([c]3ccc(C)cc3)[NH]c3cc(C(c4ccccc4)(c4ccccc4)c4ccccc4)cc(C(C)(C)C)c3[O]2)cc1
inactive: [1] 94 % of control | [2] 92 % of control | [3] 99 % of control

Cn1c(=O)c2c(nc(Br)n2C)n(C)c1=O
inactive: [4] 94 % of control | [5] 109 % of control

Cn1cc(CCc2cc[n+](CCC[N+](C)(C)C)cc2)c2ccccc21
inactive: dose: 1.25 mg/kg/injection, schedule: Q01DX009 (ip), vehicle: saline 101 % of control | dose: 2.5 mg/kg/injection, schedule: Q01DX009 (ip), vehicle: saline 105 % of control | dose: 5.0 mg/kg/injection, schedule: Q01DX009 (ip), vehicle: saline 109 % of control | dose: 10.0 mg/kg/injection, schedule: Q01DX009 (ip), vehicle: saline 108 % of control

COCN(C)N=Nc1ccc(Br)cc1
inactive: [6] 95 % of control | [7] 103 % of control | [8] 102 % of control

CC(C)(C)c1cc(C(=S)SCc2ccccc2)cc(C(C)(C)C)c1O
inactive: [1] 93 % of control | [2] 105 % of control | [3] 105 % of control

Cc1ccccc1Nc1nc(-c2ccccc2)nc(N)c1N=O
inactive: [9] 100 % of control | dose: 200.0 mg/kg/injection, schedule: Q04DX003 (ip), vehicle: saline 98 % of control | dose: 400.0 mg/kg/injection, schedule: Q04DX003 (ip), vehicle: saline 98 % of control

NCC(=O)c1ccc2oc3ccccc3c2c1
inactive: dose: 100.0 mg/kg/injection, schedule: Q01DX009 (ip), vehicle: Klucel (hydroxypropylcellulose) (HPC) 112 % of control | dose: 200.0 mg/kg/injection, schedule: Q01DX009 (ip), vehicle: Klucel (hydroxypropylcellulose) (HPC) 118 % of control

Cc1ncc(C(=O)O)c2c1OC(C)(C)OC2
inactive: [6] 104 % of control | [7] 100 % of control | [8] 98 % of control

COC(=S)NC(=O)c1ccc(F)cc1
inactive: [1] 103 % of control | [2] 112 % of control | [3] 117 % of control | dose: 400.0 mg/kg/injection, schedule: Q01DX009 (ip), vehicle: saline with Tween-80 110 % of control

COc1nc(N)nc2c1ncn2C1CC(O)C(CO)O1 (configuration not stated)
inactive: [10] 100 % of control | [11] 100 % of control | [12] 112 % of control

Cc1cc(O)c(C(=O)/C=C(\O)c2ccccc2)c(=O)o1
inactive: dose: 10.5 mg/kg/injection, schedule: Q01DX005 (ip), vehicle: Klucel (hydroxypropylcellulose) (HPC) 100 % of control | dose: 21.0 mg/kg/injection, schedule: Q01DX005 (ip), vehicle: Klucel (hydroxypropylcellulose) (HPC) 102 % of control | dose: 42.0 mg/kg/injection, schedule: Q01DX005 (ip), vehicle: Klucel (hydroxypropylcellulose) (HPC) 106 % of control | dose: 84.0 mg/kg/injection, schedule: Q01DX005 (ip), vehicle: Klucel (hydroxypropylcellulose) (HPC) 86 % of control

COc1ccc(S(=O)(=O)N/N=C/c2cccc([N+](=O)[O-])c2O)cc1
inactive: [6] 100 % of control | [7] 100 % of control | [8] 95 % of control

COC(=O)C(CC(C)C)NC(=O)C(Cc1c[nH]c2ccccc12)NC(=O)OC(C)(C)C (configuration not stated)
inactive: dose: 10.7 mg/kg/injection, schedule: Q01DX009 (ip), vehicle: other 100 % of control | dose: 21.3 mg/kg/injection, schedule: Q01DX009 (ip), vehicle: other 93 % of control | dose: 42.5 mg/kg/injection, schedule: Q01DX009 (ip), vehicle: other 93 % of control | dose: 85.0 mg/kg/injection, schedule: Q01DX009 (ip), vehicle: other 93 % of control | dose: 170.0 mg/kg/injection, schedule: Q01DX009 (ip), vehicle: other 98 % of control

O=c1[nH]ncc2c1Sc1cn[nH]c(=O)c1S2
inactive: [6] 97 % of control | [7] 104 % of control | [8] 100 % of control

COc1cc(-n2c(C)nc3ncn(-c4ccccc4)c3c2=O)cc(OC)c1OC
inactive: [10] 98 % of control | [11] 102 % of control | [12] 105 % of control

NC(Cc1ccccc1)C(=O)NCC(=O)NC(Cc1ccccc1)C(=O)NCC(=O)O (configuration not stated) (H-FGFG-OH; configuration not given here)
inactive: [10] 96 % of control | [11] 98 % of control | [12] 102 % of control

CCOCC#CC(OCC)OCC
inactive: dose: 60.0 mg/kg/injection, schedule: Q01DX005 (ip), vehicle: saline 101 % of control | dose: 120.0 mg/kg/injection, schedule: Q01DX005 (ip), vehicle: saline 99 % of control | dose: 240.0 mg/kg/injection, schedule: Q01DX005 (ip), vehicle: saline 99 % of control

CCOC(=O)Cn1cnc2sc3c(c2c1=O)CCCC3
inactive: [6] 100 % of control | [7] 98 % of control | [8] 89 % of control

Clc1ccc2c(c1)C(c1ccccc1)=NCc1nncn1-2
inactive: [4] 103 % of control | [5] 95 % of control

CCOC(=O)CC1NCCc2ccccc21 (configuration not stated)
inactive: dose: 25.0 mg/kg/injection, schedule: Q01DX005 (ip), vehicle: saline + alcohol 103 % of control | dose: 50.0 mg/kg/injection, schedule: Q01DX005 (ip), vehicle: saline + alcohol 103 % of control | dose: 100.0 mg/kg/injection, schedule: Q01DX005 (ip), vehicle: saline + alcohol 103 % of control | dose: 200.0 mg/kg/injection, schedule: Q01DX005 (ip), vehicle: saline + alcohol 101 % of control

CN(C)CCCOC1=Nc2ccccc2O/C1=C/c1ccccc1
inactive: dose: 12.5 mg/kg/injection, schedule: Q04DX003 (ip), vehicle: saline 98 % of control | dose: 25.0 mg/kg/injection, schedule: Q04DX003 (ip), vehicle: saline 94 % of control | dose: 50.0 mg/kg/injection, schedule: Q04DX003 (ip), vehicle: saline 97 % of control | [9] 97 % of control

O=C1CC(C(=O)O)C(C(=O)O)O1 (configuration not stated)
inactive: [13] 100 % of control | [14] 111 % of control | [15] 93 % of control

CC(c1ccccc1)n1ccnc1CO (configuration not stated)
inactive: dose: 60.0 mg/kg/injection, schedule: Q01DX005 (ip), vehicle: saline with Tween-80 103 % of control | dose: 120.0 mg/kg/injection, schedule: Q01DX005 (ip), vehicle: saline with Tween-80 107 % of control | dose: 240.0 mg/kg/injection, schedule: Q01DX005 (ip), vehicle: saline with Tween-80 110 % of control

c1ccc(CN2CSC3CCCCC32)cc1 (configuration not stated)
inactive: dose: 25.0 mg/kg/injection, schedule: Q01DX005 (ip), vehicle: saline 102 % of control | [13] 109 % of control and 110 % of control | [14] 107 % of control and 118 % of control | [15] 120 % of control

Cn1/c2cc/c1=C(\c1ccc(S(=O)(=O)O)cc1)c1ccc([n-]1)/C(c1ccc(S(=O)(=O)O)cc1)=c1/cc/c([nH]1)=C(\c1ccc(S(=O)(=O)O)cc1)c1ccc([n-]1)/C=2c1ccc(S(=O)(=O)O)cc1.O.O=S(=O)(O)C(F)(F)F.[Cu+2]
inactive: dose: 12.5 mg/kg/injection, schedule: Q01DX009 (ip), vehicle: saline with Tween-80 112 % of control | dose: 25.0 mg/kg/injection, schedule: Q01DX009 (ip), vehicle: saline with Tween-80 121 % of control | [1] 119 % of control | dose: 50.0 mg/kg/injection, schedule: Q01DX009 (ip), vehicle: saline 92 % of control | dose: 100.0 mg/kg/injection, schedule: Q01DX009 (ip), vehicle: saline 100 % of control
